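Test compounds were applied to cells in 96-well plates for 48 hours at 5 doses. TGI: concentration producing complete growth inhibition.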
Columns and labels:
Test in all cases: inhibition of tumour cell growth, NCI panel, 48 h
[1] = test system: SF-295 CNS
[2] = test system: A498 renal
[3] = test system: HCC-2998 colon
[4] = test system: HCT-15 colon
[5] = test system: OVCAR-4 ovarian
[6] = test system: SF-268 CNS
[7] = test system: TK-10 renal
[8] = test system: SN12C renal
[9] = test system: MCF7 breast
[10] = test system: MDA-MB-231 breast
[11] = test system: UACC-62 melanoma
[12] = test system: LOX IMVI melanoma
[13] = test system: NCI/ADR-RES ovarian
[14] = test system: HOP-62 NSCLC
[15] = test system: BT-549 breast

| Structure (SMILES) | TGI [1] [µM] | TGI [2] [µM] | TGI [3] [µM] | TGI [4] [µM] | TGI [5] [µM] | TGI [6] [µM] | TGI [7] [µM] | TGI [8] [µM] | TGI [9] [µM] | TGI [10] [µM] | TGI [11] [µM] | TGI [12] [µM] | TGI [13] [µM] | TGI [14] [µM] | TGI [15] [µM] |
| --- | --- | --- | --- | --- | --- | --- | --- | --- | --- | --- | --- | --- | --- | --- | --- |
| C/C(=C\CC/C=C(\C)CC/C=C(\C)CCC1SC1(C)C)CC/C=C(\C)CCC1OC1(C)C (stereo not drawn) | > 100 | > 100 | > 100 | > 100 | > 100 | > 100 | > 100 | > 100 |  |  |  |  |  |  |  |
| COc1cccc(CCn2c(N)c(C#N)c3ccc([N+](=O)[O-])cc3c2=O)c1 | > 31.6 | > 100 | > 46.4 | > 31.6 | > 100 | > 46.4 | > 46.4 | > 100 | > 31.6 | > 46.4 | > 31.6 | > 46.4 | > 46.4 | > 31.6 |  |
| CCOC(=O)/C(=C\c1c(C)[nH]c2ccccc12)P(=O)(OCC)OCC | > 100 | > 100 | > 100 | > 100 | > 100 | > 100 | > 100 | > 100 | > 100 | > 100 | > 100 | > 100 | > 100 | > 100 |  |
| CC(C)=CCOc1ccc(-c2coc3cc4c(c(O)c3c2=O)C=CC(C)(C)O4)cc1 | > 100 | 98.7 | > 100 | > 100 | 80 | > 100 | > 100 | > 100 |  |  |  | > 100 |  | > 100 |  |
| COC(=O)CNC(=O)CSc1nnc(COc2ccc(Cl)cc2)n1-c1ccccc1 | > 100 | > 100 | 59.1 | > 100 | > 100 | 46.6 | 46.3 | 38.5 | > 100 | 49.1 | > 100 | > 100 | > 100 | > 100 |  |
| O=C(NC(CCCCN1C(=O)c2ccccc2C1=O)P(=O)(Oc1ccccc1)Oc1ccccc1)OCc1ccccc1 (stereo not drawn) | > 100 |  | > 100 |  |  | > 100 | > 100 | > 100 | > 100 |  | > 100 |  | > 100 | > 100 | > 100 |
| CC(=O)OCC1=CC2CCC3C(C)(CCC[C@]3(C)COC(C)=O)C23CC[C@H]1C3 (stereo partly drawn) | > 100 | > 100 | 86.3 | > 100 | > 100 | > 100 | > 100 | > 100 |  |  | > 100 | 62.3 |  | > 100 |  |
| Cc1cc(C)c(C(=O)C(C)C(c2ccccc2)c2ccc(Cl)cc2)c(C)c1 (stereo not drawn) | > 100 |  |  | > 100 | > 100 | > 100 | > 100 | > 100 |  |  | > 100 |  |  | > 100 |  |
| CC1OC(CC2C=CCc3c(O)c4c(c(O)c32)C(=O)c2ccccc2C4=O)CC(NC(=O)C(F)(F)F)C1O (stereo not drawn) | 18 | 16.5 | > 100 | 55.9 | 11.7 | 22.2 | 10.9 | 18.2 |  |  | 17.4 | 20.6 |  | 19 |  |
| CCCCCCCCCCCCCCCCCCOCC(O)CO (stereo not drawn) | > 25 | > 3.96 | > 25 | > 25 | > 25 | > 25 |  | > 25 | > 25 |  | > 25 | > 25 | > 25 | 22.7 |  |
| CC(=O)OC(C)c1cc2c(s1)C(=O)c1ccsc1C2=O (stereo not drawn) | 0.233 | 3.32 | 1.54 | 0.272 | 1.93 | 0.812 | 2.49 | 0.355 | 1.24 |  | 0.23 | 0.119 | 0.992 | 0.281 | 0.347 |
| N#CC(C#N)=Cn1c(=S)[nH]c2ccc([N+](=O)[O-])cc21 | > 100 | > 100 | > 100 |  | > 100 | > 100 | > 100 | > 100 | > 100 | > 100 | > 100 | > 100 | > 100 | > 100 |  |
| CC(O)C1OC(n2ccc(=O)[nH]c2=O)CC1n1cncn1 (stereo not drawn) | > 100 | > 100 | > 100 | > 100 | > 100 | > 100 | > 100 | > 100 |  |  | > 100 | > 100 |  | > 100 |  |
| COC1(C)CNCC(C)(C)NC(=O)C(C)(OC)CNCC(C)(C)NC1=O (stereo not drawn) | > 100 | > 100 | > 100 | > 100 | > 100 | > 100 | > 100 | > 100 |  |  | > 100 | > 100 |  | > 100 |  |
| CC(C)(C)OC(=O)C1/C(=C/CBr)CN1C(=O)OC(C)(C)C (stereo not drawn) | 30.5 | 31.8 | 33.1 | 23.3 | 7.79 | 21.2 | 31.3 | 27 | 28.9 |  | 33.4 | 11.4 | 72.1 | 31.9 | 36.2 |
| CCOC(OC1=C(C#N)CCCC1)C(CC)[Se]c1ccccc1[N+](=O)[O-] (stereo not drawn) | 47 | > 100 | 45.9 | 37.1 | 35.1 | 43.6 | > 100 | 42.7 |  |  | 47 | 30.9 |  | 88.8 |  |
| CC(=O)OCC1OC(n2c(O)c(N=NC(N)=S)c3ccc([N+](=O)[O-])cc32)C(OC(C)=O)C1OC(C)=O (stereo not drawn) | > 100 |  | 65.6 | > 100 | 43.3 | > 100 | > 100 | > 100 |  |  | 27.6 | 43.1 |  | > 100 |  |
| O=C1c2c(O)cccc2Cc2cc(CO)cc(O)c21 | 5.85 | 17.8 | 18.4 | 11.3 | 14.4 | 14.3 | 14.9 | 16.9 |  | 5.67 |  |  | 15.1 | 11.9 | 86 |
